# Data published in paper PMC5218480 (PLoS ONE, 2017).
# System: MV-4-11 cells
# Experiment: Gene expression microarray analysis (Affymetrix PrimeView) and GSEA
# Assay type: cell-based, human
# Parameters: RFU PODN (11730768_x_at) / Fold change /veh PODN (11730768_x_at) / RFU LINC00158 (11744669_a_at) / Fold change /veh LINC00158 (11744669_a_at) / RFU DUSP10 (11751237_a_at) / Fold change /veh DUSP10 (11751237_a_at) / RFU ID3 (11757404_x_at) / Fold change /veh ID3 (11757404_x_at) / RFU PLEKHG5 (11737974_s_at) / Fold change /veh PLEKHG5 (11737974_s_at) / RFU LRRC4B (11730491_at) / Fold change /veh LRRC4B (11730491_at) / RFU GIMAP4 (11747438_a_at) / Fold change /veh GIMAP4 (11747438_a_at) / RFU KRT8 (11758183_x_at) / Fold change /veh KRT8 (11758183_x_at) / RFU CNN1 (11734310_a_at) / Fold change /veh CNN1 (11734310_a_at) / RFU VPS37D (11726825_at) / Fold change /veh VPS37D (11726825_at) / RFU C10orf10 (11716522_x_at) / Fold change /veh C10orf10 (11716522_x_at) / RFU KIR2DL2 /// KIR2DL4 /// KIR2DL5A /// KIR2DL5B /// KIR2DS1 /// KIR2DS2 /// KIR2DS3 /// KIR2DS4 /// KIR3DL3 /// KIR3DL3 /// KIR3DS1 (11738374_at) / Fold change /veh KIR2DL2 /// KIR2DL4 /// KIR2DL5A /// KIR2DL5B /// KIR2DS1 /// KIR2DS2 /// KIR2DS3 /// KIR2DS4 /// KIR3DL3 /// KIR3DL3 /// KIR3DS1 (11738374_at) / RFU C1QL1 (11718748_at) / Fold change /veh C1QL1 (11718748_at) / RFU TMPRSS4 (11747572_a_at) / Fold change /veh TMPRSS4 (11747572_a_at) / RFU HAMP (11756126_x_at) / Fold change /veh HAMP (11756126_x_at) / RFU RNFT2 (11725882_a_at) / Fold change /veh RNFT2 (11725882_a_at) / RFU NR4A2 (11747474_a_at) / Fold change /veh NR4A2 (11747474_a_at) / RFU ABCC12 (11746883_a_at) / Fold change /veh ABCC12 (11746883_a_at) / RFU TMEM136 (11760407_x_at) / Fold change /veh TMEM136 (11760407_x_at) / RFU CLDN22 /// WWC2 (11732394_at) / Fold change /veh CLDN22 /// WWC2 (11732394_at) / RFU HLA-DPB1 (11760878_x_at) / Fold change /veh HLA-DPB1 (11760878_x_at) / RFU SPINT1 (11716480_a_at) / Fold change /veh SPINT1 (11716480_a_at) / RFU GAP43 (11754022_s_at) / Fold change /veh GAP43 (11754022_s_at) / RFU A4GNT (11735810_at) / Fold change /veh A4GNT (11735810_at) / RFU PRB3 (11715151_x_at) / Fold change /veh PRB3 (11715151_x_at) / RFU TUBB4B (11761932_at) / Fold change /veh TUBB4B (11761932_at) / RFU CAPN14 (11732068_a_at) / Fold change /veh CAPN14 (11732068_a_at) / RFU TMCC2 (11721928_a_at) / Fold change /veh TMCC2 (11721928_a_at) / RFU IRGQ (11745062_a_at) / Fold change /veh IRGQ (11745062_a_at) / RFU FAM174B (11720279_a_at) / Fold change /veh FAM174B (11720279_a_at) / RFU TMPRSS4 (11748680_a_at) / Fold change /veh TMPRSS4 (11748680_a_at) / RFU FAM212B (11763350_a_at) / Fold change /veh FAM212B (11763350_a_at) / RFU PLEKHG5 (11743358_a_at) / Fold change /veh PLEKHG5 (11743358_a_at) / RFU ZSCAN30 (11745921_a_at) / Fold change /veh ZSCAN30 (11745921_a_at) / RFU CMKLR1 (11741424_a_at) / Fold change /veh CMKLR1 (11741424_a_at) / RFU LOC101060620 /// MAPK8IP1 (11723275_at) / Fold change /veh LOC101060620 /// MAPK8IP1 (11723275_at) / RFU SPTSSB (11747773_x_at) / Fold change /veh SPTSSB (11747773_x_at) / RFU PRSS12 (11739890_at) / Fold change /veh PRSS12 (11739890_at) / RFU BIN1 (11741810_x_at) / Fold change /veh BIN1 (11741810_x_at) / RFU WNT11 (11732464_a_at) / Fold change /veh WNT11 (11732464_a_at) / RFU C10orf10 (11716521_a_at) / Fold change /veh C10orf10 (11716521_a_at) / RFU C5orf56 (11738089_at) / Fold change /veh C5orf56 (11738089_at) / RFU CYB561 (11721691_x_at) / Fold change /veh CYB561 (11721691_x_at) / RFU ANKRD19P (11752326_a_at) / Fold change /veh ANKRD19P (11752326_a_at) / RFU OR2T12 /// OR2T33 /// OR2T8 (11738714_s_at) / Fold change /veh OR2T12 /// OR2T33 /// OR2T8 (11738714_s_at) / RFU VCAN (11748164_a_at) / Fold change /veh VCAN (11748164_a_at) / RFU JSRP1 (11732532_at) / Fold change /veh JSRP1 (11732532_at) / RFU KRTAP10-11 (11738290_x_at) / Fold change /veh KRTAP10-11 (11738290_x_at) / RFU MYO3A (11730013_a_at) / Fold change /veh MYO3A (11730013_a_at) / RFU EBF3 (11725865_a_at) / Fold change /veh EBF3 (11725865_a_at) / RFU CAMK2N1 (11719241_x_at) / Fold change /veh CAMK2N1 (11719241_x_at) / RFU C5orf56 (11738088_a_at) / Fold change /veh C5orf56 (11738088_a_at) / RFU OLFML3 (11715873_a_at) / Fold change /veh OLFML3 (11715873_a_at) / RFU LOC100653217 /// NTM (11731650_a_at) / Fold change /veh LOC100653217 /// NTM (11731650_a_at) / RFU MAPK11 (11762145_a_at) / Fold change /veh MAPK11 (11762145_a_at) / RFU FIZ1 (11724087_x_at) / Fold change /veh FIZ1 (11724087_x_at) / RFU OASL (11726364_x_at) / Fold change /veh OASL (11726364_x_at) / RFU SOX15 (11748057_x_at) / Fold change /veh SOX15 (11748057_x_at) / RFU CD79A (11719716_a_at) / Fold change /veh CD79A (11719716_a_at) / RFU HIST1H1D (11736915_at) / Fold change /veh HIST1H1D (11736915_at) / RFU CASKIN2 (11723855_a_at) / Fold change /veh CASKIN2 (11723855_a_at) / RFU LOC730098 (11760151_x_at) / Fold change /veh LOC730098 (11760151_x_at) / RFU OR4N2 (11742367_at) / Fold change /veh OR4N2 (11742367_at) / RFU PRRT2 (11749266_a_at) / Fold change /veh PRRT2 (11749266_a_at) / RFU SNX32 (11753110_a_at) / Fold change /veh SNX32 (11753110_a_at) / RFU CDHR5 (11726645_a_at) / Fold change /veh CDHR5 (11726645_a_at) / RFU RCAN1 (11760418_a_at) / Fold change /veh RCAN1 (11760418_a_at) / RFU FAM167A (11723789_a_at) / Fold change /veh FAM167A (11723789_a_at) / RFU FAM26E (11764081_at) / Fold change /veh FAM26E (11764081_at) / RFU ISYNA1 (11749810_s_at) / Fold change /veh ISYNA1 (11749810_s_at) / RFU ACY1 (11761880_at) / Fold change /veh ACY1 (11761880_at) / RFU 11764098_at / Fold change /veh 11764098_at / RFU SAMD14 (11745864_x_at) / Fold change /veh SAMD14 (11745864_x_at) / RFU NPB (11741838_a_at) / Fold change /veh NPB (11741838_a_at) / RFU TMPRSS6 (11731388_a_at) / Fold change /veh TMPRSS6 (11731388_a_at) / RFU KRTAP10-2 (11738614_at) / Fold change /veh KRTAP10-2 (11738614_at) / RFU ARHGAP8 /// PRR5-ARHGAP8 (11727945_x_at) / Fold change /veh ARHGAP8 /// PRR5-ARHGAP8 (11727945_x_at) / RFU KRTAP5-7 /// NADSYN1 (11734609_at) / Fold change /veh KRTAP5-7 /// NADSYN1 (11734609_at) / RFU RASL12 (11751679_a_at) / Fold change /veh RASL12 (11751679_a_at) / RFU CDKN2B (11736163_a_at) / Fold change /veh CDKN2B (11736163_a_at) / RFU PRF1 (11729649_at) / Fold change /veh PRF1 (11729649_at) / RFU, ZNF638 /// ZNF638-IT1 / Fold change vs veh, ZNF638 /// ZNF638-IT1 / RFU, PANK3 / Fold change vs veh, PANK3 / RFU, SH3YL1 / Fold change vs veh, SH3YL1 / RFU, ZEB2 / Fold change vs veh, ZEB2 / RFU, NRIP1 / Fold change vs veh, NRIP1 / RFU, PTTG1IP / Fold change vs veh, PTTG1IP / RFU, CAPN2 / Fold change vs veh, CAPN2 / RFU, MED14 / Fold change vs veh, MED14 / RFU, SNORA58 / Fold change vs veh, SNORA58 / RFU, C1orf63 / Fold change vs veh, C1orf63 / RFU, LRRFIP1 / Fold change vs veh, LRRFIP1 / RFU, NDUFAF7 / Fold change vs veh, NDUFAF7 / RFU, SLC12A2 / Fold change vs veh, SLC12A2 / RFU, IBTK / Fold change vs veh, IBTK / RFU, ESF1 / Fold change vs veh, ESF1 / Fold change vs veh, TMEM50B / RFU, TAOK1 / Fold change vs veh, TAOK1 / RFU, ACBD3 / Fold change vs veh, ACBD3 / RFU, TMA16 / Fold change vs veh, TMA16 / RFU, RWDD3 / Fold change vs veh, RWDD3 / RFU, BCAT1 / Fold change vs veh, BCAT1 / RFU, EDEM3 / Fold change vs veh, EDEM3 / RFU, TMEM33 / Fold change vs veh, TMEM33 / RFU, WDR75 / Fold change vs veh, WDR75 / RFU, AHCTF1 / Fold change vs veh, AHCTF1 / RFU, TFRC / Fold change vs veh, TFRC / RFU, ZDHHC17 / Fold change vs veh, ZDHHC17 / RFU, NOM1 / Fold change vs veh, NOM1 / RFU, ARL8B / Fold change vs veh, ARL8B / RFU, ZBTB11 / Fold change vs veh, ZBTB11 / RFU, TAMM41 / Fold change vs veh, TAMM41 / RFU, KIAA1704 /// LOC100996395 / Fold change vs veh, KIAA1704 /// LOC100996395 / RFU, ING1 / Fold change vs veh, ING1 / RFU, TRMT61B / Fold change vs veh, TRMT61B / RFU, FUBP3 / Fold change vs veh, FUBP3 / RFU, TP53 / Fold change vs veh, TP53 / RFU, TNKS2 / Fold change vs veh, TNKS2 / RFU, ZFP14 / Fold change vs veh, ZFP14 / RFU, ACTR2 / Fold change vs veh, ACTR2 / RFU, PPP3R1 / Fold change vs veh, PPP3R1 / RFU, PIK3R1 / Fold change vs veh, PIK3R1 / RFU, HNRNPA1 / Fold change vs veh, HNRNPA1 / RFU, RNF170 / Fold change vs veh, RNF170 / RFU, ZNF28 / Fold change vs veh, ZNF28 / RFU, RNGTT / Fold change vs veh, RNGTT / RFU, OGT / Fold change vs veh, OGT / RFU, BRD1 / Fold change vs veh, BRD1 / RFU, MARS / Fold change vs veh, MARS / RFU, ZNF655 / Fold change vs veh, ZNF655 / RFU, FAHD1 / Fold change vs veh, FAHD1 / RFU, BDP1 / Fold change vs veh, BDP1 / RFU, LRRCC1 / Fold change vs veh, LRRCC1 / RFU, ARID1A / Fold change vs veh, ARID1A / RFU, ZNF146 / Fold change vs veh, ZNF146 / RFU, ZNF330 / Fold change vs veh, ZNF330 / RFU, GPN3 / Fold change vs veh, GPN3 / RFU, C9orf123 / Fold change vs veh, C9orf123 / RFU, N4BP2L2 / Fold change vs veh, N4BP2L2 / RFU, ARFIP1 / Fold change vs veh, ARFIP1 / RFU, FAM179B / Fold change vs veh, FAM179B / RFU, BCL10 / Fold change vs veh, BCL10 / RFU, UHRF1BP1L / Fold change vs veh, UHRF1BP1L / RFU, BET1 / Fold change vs veh, BET1 / RFU, CNOT2 / Fold change vs veh, CNOT2 / RFU, ZNF268 / Fold change vs veh, ZNF268 / Fold change vs veh, ZNF507 / RFU, DGCR2 / Fold change vs veh, DGCR2 / RFU, WDSUB1 / Fold change vs veh, WDSUB1 / Fold change vs veh, HSP90B1 /// MIR3652 / RFU, ADSS / Fold change vs veh, ADSS / RFU, GK / Fold change vs veh, GK / RFU, ZNF148 / Fold change vs veh, ZNF148 / RFU, TAF9 / Fold change vs veh, TAF9 / RFU, SLC1A5 / Fold change vs veh, SLC1A5 / RFU, SLMO2 / Fold change vs veh, SLMO2 / RFU, ABCC4 / Fold change vs veh, ABCC4 / RFU, LOC101060439 /// RAP1B / Fold change vs veh, LOC101060439 /// RAP1B / RFU, RFX7 / Fold change vs veh, RFX7 / RFU, GTPBP10 / Fold change vs veh, GTPBP10 / RFU, CNEP1R1 / Fold change vs veh, CNEP1R1 / RFU, BIVM-ERCC5 /// ERCC5 / Fold change vs veh, BIVM-ERCC5 /// ERCC5 / RFU, ILF3 / Fold change vs veh, ILF3 / RFU 11762660_at / Fold change /veh 11762660_at / RFU VCAN (11757783_s_at) / Fold change /veh VCAN (11757783_s_at) / RFU DDX43 (11728927_at) / Fold change /veh DDX43 (11728927_at) / RFU KRT8 (11758188_x_at) / Fold change /veh KRT8 (11758188_x_at) / RFU NKD1 (11759106_at) / Fold change /veh NKD1 (11759106_at) / RFU SRD5A1 (11742802_a_at) / Fold change /veh SRD5A1 (11742802_a_at) / RFU TPSAB1 /// TPSB2 (11721975_s_at) / Fold change /veh TPSAB1 /// TPSB2 (11721975_s_at) / RFU GSTM3 (11746129_a_at) / Fold change /veh GSTM3 (11746129_a_at) / RFU IL23R (11737362_x_at) / Fold change /veh IL23R (11737362_x_at) / RFU TMEM51 (11727254_a_at) / Fold change /veh TMEM51 (11727254_a_at) / RFU PIWIL2 (11732686_x_at) / Fold change /veh PIWIL2 (11732686_x_at) / RFU ORM1 (11744905_x_at) / Fold change /veh ORM1 (11744905_x_at) / RFU CCDC152 (11743942_at) / Fold change /veh CCDC152 (11743942_at) / RFU ECM1 (11717891_a_at) / Fold change /veh ECM1 (11717891_a_at) / RFU IL23R (11748794_a_at) / Fold change /veh IL23R (11748794_a_at) / RFU TNFAIP8L3 (11732012_x_at) / Fold change /veh TNFAIP8L3 (11732012_x_at) / RFU MBOAT4 (11741988_at) / Fold change /veh MBOAT4 (11741988_at) / RFU 11764193_at / Fold change /veh 11764193_at / RFU TMEM53 (11763286_at) / Fold change /veh TMEM53 (11763286_at) / RFU MAGEB2 (11727129_at) / Fold change /veh MAGEB2 (11727129_at) / RFU TMEM200A (11744735_a_at) / Fold change /veh TMEM200A (11744735_a_at) / RFU CCDC152 (11751479_a_at) / Fold change /veh CCDC152 (11751479_a_at) / RFU FAM211A (11726209_a_at) / Fold change /veh FAM211A (11726209_a_at) / RFU RGS16 (11746705_a_at) / Fold change /veh RGS16 (11746705_a_at) / RFU VCAN (11755009_s_at) / Fold change /veh VCAN (11755009_s_at) / RFU RHOB (11743442_s_at) / Fold change /veh RHOB (11743442_s_at) / RFU RGS16 (11720943_a_at) / Fold change /veh RGS16 (11720943_a_at) / RFU RGS16 (11720944_at) / Fold change /veh RGS16 (11720944_at) / RFU, VPS4B / Fold change vs veh, VPS4B / RFU, CREB1 / Fold change vs veh, CREB1 / RFU, DNAJC13 / Fold change vs veh, DNAJC13 / RFU, GNAQ / Fold change vs veh, GNAQ / RFU, CDK5R1 / Fold change vs veh, CDK5R1 / RFU, ZRANB3 / Fold change vs veh, ZRANB3 / RFU, CUL4A / Fold change vs veh, CUL4A / RFU, CCNY / Fold change vs veh, CCNY / RFU, UFL1 / Fold change vs veh, UFL1 / RFU, COG3 / Fold change vs veh, COG3 / RFU, DIAPH2 / Fold change vs veh, DIAPH2 / RFU, SKA2 / Fold change vs veh, SKA2 / RFU, AFF3 / Fold change vs veh, AFF3 / RFU, LMF1 / Fold change vs veh, LMF1 / RFU, IPO11 / Fold change vs veh, IPO11 / RFU, DFFB / Fold change vs veh, DFFB / RFU, FOXP1 / Fold change vs veh, FOXP1 / RFU, CARD8 / Fold change vs veh, CARD8 / RFU, STRN3 / Fold change vs veh, STRN3 / RFU, ADK / Fold change vs veh, ADK / RFU, RASSF2 / Fold change vs veh, RASSF2 / RFU, WIPF1 / Fold change vs veh, WIPF1 / RFU, LARP1B / Fold change vs veh, LARP1B / RFU, RASA1 / Fold change vs veh, RASA1 / RFU, RB1 / Fold change vs veh, RB1 / RFU, PPFIA1 / Fold change vs veh, PPFIA1 / RFU, MAT2A / Fold change vs veh, MAT2A / RFU, CCT5 / Fold change vs veh, CCT5 / RFU, WDR92 / Fold change vs veh, WDR92 / RFU, CUX1 / Fold change vs veh, CUX1 / RFU, TTC7A / Fold change vs veh, TTC7A / RFU, TMEM135 / Fold change vs veh, TMEM135 / RFU, DEPTOR / Fold change vs veh, DEPTOR / RFU, CPM / Fold change vs veh, CPM / RFU, DNAJB6 / Fold change vs veh, DNAJB6 / RFU, CACNA2D3 / Fold change vs veh, CACNA2D3 / RFU, DTX4 / Fold change vs veh, DTX4 / RFU, TFCP2 / Fold change vs veh, TFCP2 / RFU, GMCL1 /// GMCL1P1 / Fold change vs veh, GMCL1 /// GMCL1P1 / RFU, AEBP2 / Fold change vs veh, AEBP2 / RFU, SNHG1 /// SNORD22 /// SNORD25 /// SNORD26 /// SNORD27 /// SNORD28 /// SNORD29 /// SNORD31 / Fold change vs veh, SNHG1 /// SNORD22 /// SNORD25 /// SNORD26 /// SNORD27 /// SNORD28 /// SNORD29 /// SNORD31 / Fold change (Aza/veh), C12orf56 (ProbeSet 11735607_a_at) / Fold change (ACY-1035/veh), C12orf56 (ProbeSet 11735607_a_at) / Fold change (Aza/veh), FGFR1OP (ProbeSet 11751329_s_at) / Fold change (ACY-1035/veh), FGFR1OP (ProbeSet 11751329_s_at) / Fold change (Aza/veh), VPS36 (ProbeSet 11739960_a_at) / Fold change (ACY-1035/veh), VPS36 (ProbeSet 11739960_a_at) / RFU SYPL1 (11715823_x_at) / Fold change /veh SYPL1 (11715823_x_at) / RFU IGFBP7 (11715501_s_at) / Fold change /veh IGFBP7 (11715501_s_at) / RFU REEP3 (11722064_at) / Fold change /veh REEP3 (11722064_at) / RFU IGLL1 (11728026_x_at) / Fold change /veh IGLL1 (11728026_x_at): dose or concentration left out as unconfirmed
# Conditions: ProbeSet 11719632_a_at; LIST B
smiles,measurement,value
Nc1ncn([C@@H]2O[C@H](CO)[C@@H](O)[C@H]2O)c(=O)n1 [azacitidine],"Fold change vs veh, ABCC4",0.85
